In patent US20010018416A1, “COMPOSITIONS AND METHODS FOR TREATING HEPATITIS-C” (priority 1997, published 2001):

What was measured:
[1] = test system: A 549 cells (human small cell lung carcinoma); assay: DNA fragmentation test (LDH released by dying cells measured by optic density) after TNF-α; format: cell-based; settings: A549; TNF-α 10 nanograms/ml; GMDP 1 and 2 μg/ml; 8 hours
Experimental: The LDH analysis procedure is described above. A 549 cells (human small cell lung carcinoma) were utilized for the DNA fragmentation test and treated with GMDP 1 ug/ml and with GMDP 2 ug/ml for 2 hours and then treated with human TNF-α (Sigma Corp., St. Louis, Mo.). FIGS. 8 and 9 are plots of the optical density measurements of two different scans each with six samples utilizing the DNA fragmentation procedure. […] TNF-α levels were 10 nanograms/ml for all samples, while samples 1-4 contained no GMDP, sample 5 contained 1 μg/ml GMDP and sample 6 contained 2 μg/ml GMDP. Sample 1 was analyzed after 0 hours, sample 2 analyzed after 2 hours, sample 3 analyzed after 4 hours, while samples 4, 5, and 6 were analyzed after 8 hours. Accordingly, only samples 5 and 6 from each scan measure cell protection after 8 hours. […] In other words, the higher purity GMDP drastically increases cell protection and antiapoptotic activity.

hepatitis-C = test system: hepatitis-C
Experimental: Twelve patients in the active stage of hepatitis-C were selected for this study. The study group consisted of eight females and four males between 36 and 57 years of age. […] The control powder contained vegetable oil, corn syrup solids, and lactose. Quality control (to check for product identity and purity) was done by HPLC through comparisons with those obtained from reference samples from Sigma Corp, St Louis, Mo. The GMDP powder was diluted with 10 ml sterile distilled water. The daily GMDP dosage ranged from 0.1-0.5 mg/kg of the patient's body weight for blastolysine 80-120 mg/kg of body weight. Statistical analysis were done with Epi-Info Statistical Package (Center for Disease Control and Prevention, Atlanta, Ga.) with two way comparison by the Fischer's exact test (two tailed). Eleven patients were orally administered GMDP at dosage of […] daily in a water solution for one or two months. One patient with 44000×1000 viral load and early liver cirrhosis was treated for one year. GMDP at dosage of 0.1-0.5 mg/kg daily was administered to 11 patients.

[2] = test system: human CD4+ lymphocytes taken from AIDS patient; assay: LDH assay of the inhibition of Fas antigen mediated apoptosis in vitro; format: cell-based; settings: LDH release 16 h after anti-Fas antibodies, FIG. 3
Experimental: The following cell lines were used for this assay: A549 (human lung carcinoma cells), A431 (human […]), L929 (mouse […]), human CD4+ lymphocytes taken from AIDS patient. All cells are commercially available from ATCC. They were maintained in DME medium supplemented with 10% FCS and glutamine in CO2 incubator. Lactate dehydrogenase (LDH) assay Cells were seeded into 35 mm Petri dishes and grown up to 70% confluency. Then they were treated with human recombinant antibodies against Fas antigen (gift from […] Co.) in the concentration indicated in the figures. In cases where the cells were not spontaneously sensitive to Fas ligand induced cytolysis, cycloheximide (CHX), a powerful blocker of the protein synthesis, which sensitizes the cells to anti Fas antibodies action, was used in concentration of 25 μg/ml. Sixteen hours after treatment, 20 μl samples of the cultured supernatants were removed and assayed for LDH release by the Cytotox 96 assay (Promega Biotech., Madison, Wis.)in accordance with the manufacturer's instructions. This methodology is based upon the fact that when cells are dying they are releasing LDH. […] These samples were assayed in triplicate on an EL340 Microplate reader (Bic) Tech Instruments Inc.) at 490 nm wave length. The average of these three readings was plated on the graphs (FIGS. 1, 2, 3 and 4).

Compound	optical density relative to cells exposed to GMDP of about 97.3% purity [1]	reduction in bilirubin concentration (hepatitis-C; 2 patients with elevated level)	decrease of LDH and GGTP activity (hepatitis-C; 7 patients who had elevated level)	effect on AST and APT activity (hepatitis-C; 7 patients who had elevated level of these enzymes)	fatigue and nausea (hepatitis-C; after first week, all patients who had these symptoms)	serum HPC RNA test, reduction of viral load (hepatitis-C; after the first three weeks of treatment, all patients)	overall clinical conditions (hepatitis-C; all patients treated, follow up period)	toxic effects (hepatitis-C; human, in vivo, po)	free iron test (hepatitis-C; one patient with high levels of free iron)	effect on alkaline phosphates activity (hepatitis-C; one patient with previously elevated level)	follow-up liver biopsy, pathology examination (hepatitis-C; one patient, end of one year treatment)	follow-up liver biopsy (hepatitis-C; two patients with diagnosed mild necrosis and fibrosis)	maximum inhibition of Fas Ag antibodies mediated cell lysis (reduction) [2]
CC(=O)NC1C(OC2C(CO)OC(O)C(NC(C)=O)C2OC(C)C(=O)NC(C)C(=O)NC(CCC(=O)O)C(N)=O)OC(CO)C(O)C1O [GMDP of about 98.3% purity, N-acetyl-D-glucosaminyl-(β1-4)-N-acetylmuramyl-L-alanyl-D-isoglutamine]	less than ½	–	–	–	–	–	–	–	–	–	–	–	–
CC(=O)NC1C(OC2C(CO)OC(O)C(NC(C)=O)C2OC(C)C(=O)NC(C)C(=O)NC(CCC(=O)O)C(N)=O)OC(CO)C(O)C1O [GMDP, N-acetyl-D-glucosaminyl-(β1-4)-N-acetylmuramyl-L-alanyl-D-isoglutamine]	–	19%(3)	34% (6)	beneficial effect	completely subsided	two-three fold reduction	improved	No patients experienced toxic effects	full normalization	Lowering effect	no sign of previous necrosis and cirrhosis	no necrosis or fibrotic change was detectable	72%
